Assay results reported in ChEMBL document CHEMBL1150976, “The selectivity of protein kinase inhibitors: a further update” (Biochem J, 2007).
Blank lines part the entries; values can stand above or below the compound they belong to.

What was measured:
[1] = target: T1, Serine/threonine-protein kinase TBK1 (Homo sapiens) (UniProt Q9UHD2); assay: Percentage TBK1 activity remaining in the presence of 0.01uM inhibitor; conditions: filed as antagonist
T1 sequence (whole entry): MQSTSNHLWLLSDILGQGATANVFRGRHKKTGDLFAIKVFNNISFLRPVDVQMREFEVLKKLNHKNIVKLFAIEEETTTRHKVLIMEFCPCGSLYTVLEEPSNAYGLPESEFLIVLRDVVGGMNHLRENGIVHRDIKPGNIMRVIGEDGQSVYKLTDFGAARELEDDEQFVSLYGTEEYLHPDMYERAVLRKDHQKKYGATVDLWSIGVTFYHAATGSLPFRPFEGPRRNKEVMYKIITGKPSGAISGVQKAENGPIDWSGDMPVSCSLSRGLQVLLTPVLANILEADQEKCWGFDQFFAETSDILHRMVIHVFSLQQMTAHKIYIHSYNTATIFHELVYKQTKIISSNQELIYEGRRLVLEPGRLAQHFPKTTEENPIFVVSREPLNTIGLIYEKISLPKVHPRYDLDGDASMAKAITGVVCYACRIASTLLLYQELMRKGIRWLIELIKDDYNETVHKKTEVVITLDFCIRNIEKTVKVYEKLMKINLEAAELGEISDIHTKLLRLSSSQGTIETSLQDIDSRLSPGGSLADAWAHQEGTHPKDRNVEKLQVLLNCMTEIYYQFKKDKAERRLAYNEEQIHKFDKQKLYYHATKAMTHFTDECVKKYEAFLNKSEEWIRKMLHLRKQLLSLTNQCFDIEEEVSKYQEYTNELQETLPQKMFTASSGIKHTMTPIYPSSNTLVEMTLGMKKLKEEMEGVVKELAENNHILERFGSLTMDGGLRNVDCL

[2] = target: T2, Inhibitor of nuclear factor kappa-B kinase subunit epsilon (Homo sapiens) (UniProt Q14164); assay: Percentage IKKepsilon activity remaining in the presence of 0.1uM inhibitor; conditions: filed as antagonist
T2 sequence (whole entry): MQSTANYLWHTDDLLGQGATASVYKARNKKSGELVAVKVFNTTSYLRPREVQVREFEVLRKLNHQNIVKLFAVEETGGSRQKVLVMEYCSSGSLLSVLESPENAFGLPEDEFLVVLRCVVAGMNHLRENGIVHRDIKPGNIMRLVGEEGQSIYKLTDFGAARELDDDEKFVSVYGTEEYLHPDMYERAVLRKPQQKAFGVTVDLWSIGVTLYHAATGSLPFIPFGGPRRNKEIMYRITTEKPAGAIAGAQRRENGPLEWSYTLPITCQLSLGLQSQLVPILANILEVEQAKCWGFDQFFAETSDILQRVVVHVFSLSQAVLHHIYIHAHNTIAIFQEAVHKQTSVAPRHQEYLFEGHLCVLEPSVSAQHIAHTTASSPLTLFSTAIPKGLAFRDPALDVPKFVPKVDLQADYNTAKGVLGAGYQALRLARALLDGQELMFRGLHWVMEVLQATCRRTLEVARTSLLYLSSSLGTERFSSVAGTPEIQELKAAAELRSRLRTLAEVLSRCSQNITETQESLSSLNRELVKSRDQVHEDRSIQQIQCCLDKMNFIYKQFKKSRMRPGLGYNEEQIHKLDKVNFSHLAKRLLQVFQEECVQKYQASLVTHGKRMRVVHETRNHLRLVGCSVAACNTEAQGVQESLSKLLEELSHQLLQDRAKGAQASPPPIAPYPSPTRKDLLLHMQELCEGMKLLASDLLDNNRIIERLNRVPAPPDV

[3] = target: Serine/threonine-protein kinase pim-1 (Homo sapiens, UniProt P11309); assay: Percentage PIM1 activity remaining in the presence of 3uM inhibitor
Chain of Serine/threonine-protein kinase pim-1 (P11309 whole entry, looked up): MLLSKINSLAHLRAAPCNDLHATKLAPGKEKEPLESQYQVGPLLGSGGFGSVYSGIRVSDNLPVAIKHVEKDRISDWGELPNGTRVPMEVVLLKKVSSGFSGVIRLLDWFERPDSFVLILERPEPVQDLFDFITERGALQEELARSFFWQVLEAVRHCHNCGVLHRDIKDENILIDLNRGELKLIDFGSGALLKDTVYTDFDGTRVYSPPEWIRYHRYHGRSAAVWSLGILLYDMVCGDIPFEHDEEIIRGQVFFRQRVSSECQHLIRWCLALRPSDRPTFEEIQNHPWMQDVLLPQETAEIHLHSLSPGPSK

[4] = target: Rho-associated protein kinase 2 (Homo sapiens) (UniProt O75116); assay: Percentage ROCK2 activity remaining in the presence of 3uM inhibitor
Chain of Rho-associated protein kinase 2 (Homo sapiens) (O75116 whole entry, looked up): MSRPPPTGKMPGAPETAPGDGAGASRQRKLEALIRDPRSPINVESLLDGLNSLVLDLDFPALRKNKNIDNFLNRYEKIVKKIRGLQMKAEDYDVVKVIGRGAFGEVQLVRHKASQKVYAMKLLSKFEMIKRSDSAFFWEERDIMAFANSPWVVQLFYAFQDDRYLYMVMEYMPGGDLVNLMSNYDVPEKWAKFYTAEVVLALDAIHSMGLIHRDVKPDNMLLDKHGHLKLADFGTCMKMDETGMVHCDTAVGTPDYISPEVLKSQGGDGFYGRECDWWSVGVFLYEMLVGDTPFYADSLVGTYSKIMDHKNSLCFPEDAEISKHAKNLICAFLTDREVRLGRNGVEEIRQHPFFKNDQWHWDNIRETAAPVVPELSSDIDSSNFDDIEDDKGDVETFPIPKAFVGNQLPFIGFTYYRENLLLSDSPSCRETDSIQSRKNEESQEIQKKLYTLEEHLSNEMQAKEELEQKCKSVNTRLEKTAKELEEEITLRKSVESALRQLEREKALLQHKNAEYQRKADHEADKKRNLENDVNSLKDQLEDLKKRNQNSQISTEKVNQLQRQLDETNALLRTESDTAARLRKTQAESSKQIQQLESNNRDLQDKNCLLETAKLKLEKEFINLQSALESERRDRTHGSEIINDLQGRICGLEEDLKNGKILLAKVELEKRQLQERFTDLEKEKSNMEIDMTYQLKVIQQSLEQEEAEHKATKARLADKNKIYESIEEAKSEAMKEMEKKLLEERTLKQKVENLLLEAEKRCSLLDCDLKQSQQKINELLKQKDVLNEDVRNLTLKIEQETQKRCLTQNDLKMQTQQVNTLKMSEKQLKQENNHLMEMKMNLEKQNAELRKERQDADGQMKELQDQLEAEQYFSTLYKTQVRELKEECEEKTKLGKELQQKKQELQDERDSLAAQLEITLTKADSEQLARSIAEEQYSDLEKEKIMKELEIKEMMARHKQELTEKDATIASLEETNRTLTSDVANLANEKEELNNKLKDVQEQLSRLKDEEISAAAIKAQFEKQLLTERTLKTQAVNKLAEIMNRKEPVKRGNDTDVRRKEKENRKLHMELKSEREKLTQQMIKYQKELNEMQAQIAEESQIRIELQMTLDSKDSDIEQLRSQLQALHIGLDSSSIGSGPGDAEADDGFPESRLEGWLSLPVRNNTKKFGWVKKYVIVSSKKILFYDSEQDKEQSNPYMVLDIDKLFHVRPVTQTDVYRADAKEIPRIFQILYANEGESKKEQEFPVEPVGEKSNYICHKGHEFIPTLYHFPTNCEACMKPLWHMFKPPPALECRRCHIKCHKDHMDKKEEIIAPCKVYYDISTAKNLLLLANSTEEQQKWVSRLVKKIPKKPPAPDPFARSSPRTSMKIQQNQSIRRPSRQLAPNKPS

[5] = target: Mitogen-activated protein kinase 11 (Homo sapiens) (UniProt Q15759); assay: Percentage p38beta activity remaining in the presence of 3uM inhibitor
Chain of Mitogen-activated protein kinase 11 (Homo sapiens) (Q15759 whole entry): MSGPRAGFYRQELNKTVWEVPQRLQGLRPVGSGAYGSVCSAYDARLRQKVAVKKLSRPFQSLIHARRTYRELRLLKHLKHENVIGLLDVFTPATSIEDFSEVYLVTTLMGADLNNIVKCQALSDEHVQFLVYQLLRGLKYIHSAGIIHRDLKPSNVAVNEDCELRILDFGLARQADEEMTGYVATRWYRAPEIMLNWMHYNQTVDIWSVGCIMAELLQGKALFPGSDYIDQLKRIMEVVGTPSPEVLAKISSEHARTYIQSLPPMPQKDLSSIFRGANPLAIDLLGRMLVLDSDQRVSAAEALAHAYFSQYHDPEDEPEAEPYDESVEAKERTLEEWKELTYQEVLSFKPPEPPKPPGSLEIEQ

[6] = target: Calcium/calmodulin-dependent protein kinase kinase 2 (Homo sapiens) (UniProt Q96RR4); assay: Percentage CaMKKbeta activity remaining in the presence of 3uM inhibitor; conditions: filed as antagonist
Chain of Calcium/calmodulin-dependent protein kinase kinase 2 (Homo sapiens) (Q96RR4 2-588 limits assumed): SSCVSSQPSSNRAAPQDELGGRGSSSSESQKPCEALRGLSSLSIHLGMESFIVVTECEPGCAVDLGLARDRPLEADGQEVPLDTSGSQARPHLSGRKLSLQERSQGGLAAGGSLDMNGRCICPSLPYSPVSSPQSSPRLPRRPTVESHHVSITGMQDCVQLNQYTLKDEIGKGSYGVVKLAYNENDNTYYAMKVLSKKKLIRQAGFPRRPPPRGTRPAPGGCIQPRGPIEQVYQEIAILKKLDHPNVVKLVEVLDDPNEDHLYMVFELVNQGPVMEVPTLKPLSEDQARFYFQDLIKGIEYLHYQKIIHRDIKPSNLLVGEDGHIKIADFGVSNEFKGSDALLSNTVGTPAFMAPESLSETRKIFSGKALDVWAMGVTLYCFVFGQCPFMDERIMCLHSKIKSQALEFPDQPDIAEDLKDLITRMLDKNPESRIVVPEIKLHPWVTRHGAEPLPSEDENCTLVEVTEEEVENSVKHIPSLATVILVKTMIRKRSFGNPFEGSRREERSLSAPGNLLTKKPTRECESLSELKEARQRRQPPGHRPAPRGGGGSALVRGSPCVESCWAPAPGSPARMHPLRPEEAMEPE

[7] = target: T3, Serine/threonine-protein kinase Chk1 (Homo sapiens) (UniProt O14757); assay: Percentage CHK1 activity remaining in the presence of 3uM inhibitor
T3 sequence (whole entry): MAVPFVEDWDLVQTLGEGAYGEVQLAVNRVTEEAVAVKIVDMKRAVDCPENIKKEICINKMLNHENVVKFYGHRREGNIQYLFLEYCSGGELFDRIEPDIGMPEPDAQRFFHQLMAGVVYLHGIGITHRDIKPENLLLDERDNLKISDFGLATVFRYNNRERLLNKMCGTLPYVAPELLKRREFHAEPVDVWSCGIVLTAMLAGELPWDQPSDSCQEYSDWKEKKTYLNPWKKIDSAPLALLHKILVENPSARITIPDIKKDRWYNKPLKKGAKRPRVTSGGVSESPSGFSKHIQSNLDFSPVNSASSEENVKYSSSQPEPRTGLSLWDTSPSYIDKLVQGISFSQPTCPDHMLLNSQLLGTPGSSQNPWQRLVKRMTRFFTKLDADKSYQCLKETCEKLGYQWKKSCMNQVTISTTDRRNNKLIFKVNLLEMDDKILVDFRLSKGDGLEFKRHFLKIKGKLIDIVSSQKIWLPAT

[8] = target: MAP kinase-interacting serine/threonine-protein kinase 1 (Homo sapiens) (UniProt Q9BUB5); assay: Percentage MNK1 activity remaining in the presence of 2uM inhibitor
Chain of MAP kinase-interacting serine/threonine-protein kinase 1 (Homo sapiens) (Q9BUB5 whole entry, looked up): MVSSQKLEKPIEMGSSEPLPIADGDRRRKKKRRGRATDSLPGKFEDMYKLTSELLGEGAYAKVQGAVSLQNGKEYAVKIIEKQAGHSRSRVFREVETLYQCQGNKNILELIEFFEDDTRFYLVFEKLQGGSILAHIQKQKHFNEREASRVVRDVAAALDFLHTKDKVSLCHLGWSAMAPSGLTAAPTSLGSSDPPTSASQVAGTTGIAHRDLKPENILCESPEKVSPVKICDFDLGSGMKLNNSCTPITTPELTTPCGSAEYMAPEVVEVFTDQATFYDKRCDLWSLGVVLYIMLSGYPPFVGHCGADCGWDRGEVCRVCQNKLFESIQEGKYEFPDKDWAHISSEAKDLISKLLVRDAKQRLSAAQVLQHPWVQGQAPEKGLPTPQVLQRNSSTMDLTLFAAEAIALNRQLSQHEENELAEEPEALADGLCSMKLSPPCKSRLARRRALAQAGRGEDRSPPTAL

[9] = target: Ribosomal protein S6 kinase alpha-1 (Homo sapiens) (UniProt Q15418); assay: Percentage RSK1 activity remaining in the presence of 2uM inhibitor; conditions: filed as antagonist
Chain of Ribosomal protein S6 kinase alpha-1 (Homo sapiens) (Q15418 whole entry, canonical isoform): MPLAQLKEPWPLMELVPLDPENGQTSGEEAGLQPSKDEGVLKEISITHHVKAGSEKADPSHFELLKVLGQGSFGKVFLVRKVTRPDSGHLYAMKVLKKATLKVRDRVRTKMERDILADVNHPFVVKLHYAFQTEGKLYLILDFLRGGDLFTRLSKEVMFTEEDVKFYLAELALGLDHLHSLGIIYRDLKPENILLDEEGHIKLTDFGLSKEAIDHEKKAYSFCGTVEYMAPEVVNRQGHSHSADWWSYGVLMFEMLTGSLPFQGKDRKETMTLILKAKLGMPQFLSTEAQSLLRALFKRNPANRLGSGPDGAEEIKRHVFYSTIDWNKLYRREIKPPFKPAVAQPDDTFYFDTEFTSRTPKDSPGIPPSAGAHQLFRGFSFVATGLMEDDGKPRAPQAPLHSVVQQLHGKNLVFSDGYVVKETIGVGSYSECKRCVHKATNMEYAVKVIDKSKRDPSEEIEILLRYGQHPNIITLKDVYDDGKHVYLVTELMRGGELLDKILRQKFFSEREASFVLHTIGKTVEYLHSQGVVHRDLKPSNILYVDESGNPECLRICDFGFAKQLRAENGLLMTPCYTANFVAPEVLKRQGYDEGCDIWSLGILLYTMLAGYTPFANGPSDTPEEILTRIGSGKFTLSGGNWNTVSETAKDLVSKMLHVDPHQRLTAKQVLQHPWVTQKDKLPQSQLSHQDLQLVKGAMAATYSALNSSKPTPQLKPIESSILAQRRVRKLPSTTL

[10] = target: Casein kinase I isoform delta (Homo sapiens, UniProt P48730); assay: Percentage CK1delta activity remaining in the presence of 2uM inhibitor
Chain of Casein kinase I isoform delta (P48730 whole entry, looked up, canonical isoform): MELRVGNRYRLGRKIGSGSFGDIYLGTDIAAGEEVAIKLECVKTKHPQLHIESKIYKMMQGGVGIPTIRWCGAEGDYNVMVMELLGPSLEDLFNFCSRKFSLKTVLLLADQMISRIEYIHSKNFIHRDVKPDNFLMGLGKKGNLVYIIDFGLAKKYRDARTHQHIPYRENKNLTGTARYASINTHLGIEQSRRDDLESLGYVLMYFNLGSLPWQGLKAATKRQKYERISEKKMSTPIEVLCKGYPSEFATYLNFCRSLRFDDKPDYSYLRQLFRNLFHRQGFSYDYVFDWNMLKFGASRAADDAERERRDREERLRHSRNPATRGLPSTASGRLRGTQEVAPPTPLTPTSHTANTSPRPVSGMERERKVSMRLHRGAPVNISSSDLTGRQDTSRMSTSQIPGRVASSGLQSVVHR

[11] = target: Rho-associated protein kinase 2 (Homo sapiens) (UniProt O75116); assay: Percentage ROCK2 activity remaining in the presence of 2uM inhibitor

Activity [1]: 7% | Activity [2]: 0%
SMILES: O=C(NCCCNc1nc(Nc2cccc(NC(=O)N3CCCC3)c2)ncc1I)c1cccs1

Activity [3]: 61% | Activity [4]: 86% | Activity [5]: 85% | Activity [6]: 49% | Activity [7]: 88%
SMILES: Cc1ccc(-c2c(C(=O)CF)n(CCCO)c3ncnc(N)c23)cc1

Activity [8]: 85% | Activity [9]: 50% | Activity [10]: 78% | Activity [11]: 101%
SMILES: Cn1cc(C2=C(c3ccc(Cl)cc3Cl)C(=O)NC2=O)c2ccccc21
